Counter-ions that a name gives are not always drawn. Like-named read-outs stand apart in the source and are kept apart here.
Assays:
[1] = tested on: Plasmodium falciparum parasite; test: Whole cell assay (assay 2); type: cell-based
From the text: Assay 2) Determination of Whole Cell Activity Against the Plasmodium falciparum Parasite
Compounds can be evaluated for whole cell actvity against the Plasmodium falciparum parasite according to the procedure described in Sijwali S. and Rosenthal P. J., (2004) Proceedings of the National Academy of Sciences of the United States of America (PNAS) 101 (13), 4384-4389 (see in particular “Measurement of Parasite Growth rates and Inhibitor Sensitivity” on page 4385); IC50 values can be calculated as described in Singh A. and Rosenthal P. J., (2001) Antimicrobial Agents and Chemotherapy 45(3), 949-951 (see in particular page 950, first column); synchronised parasites can be prepared as described in Divo A. A. et al., (1985) Protozool. 32, 59-64.

Cathepsin S = Cathepsin S (Homo sapiens, UniProt P25774); test: Cathepsin S enzymatic assay (assay 1); type: biochemical; conditions: human recombinant enzyme, KQKLR-AMC substrate, pH 6.5
Method: Assay 1) Determination of Falcipain-2, Falcipain-3, Vivapain-2, Cathepsin K Cathepsin S, Cathepsin L, and Cathepsin B Proteolytic Catalytic Activity
Assays for Falcipain-2, Falcipain-3, and Vivapain-2 are carried out with parasitic recombinant enzymes. Cathepsins K, S, L, and B are carried out with human recombinant enzymes. Standard assay conditions for the determination of kinetic constants used a fluorogenic peptide substrate, typically H-D-VLR-AFC (Falcipain-2, Falcipain-3, Vivapain-2), Z-FR-AFC (Cathepsin K, L, B), or KQKLR-AMC (Cathepsin S) and are determined in 100 mM sodium acetate, pH 5.5, containing 10 mM DTT and 0.5 mM CHAPS (Falcipain-2, Falcipain-3, Vivapain-2), and 100 mM sodium acetate, pH 5.5, containing 5 mM L-cysteine, 1 mM CHAPS and 5 mM EDTA (Cathepsin K, L, B), or 50 mM MES, pH 6.5, containing 0.5 mM CHAPS, 10 mM L-CYS, 5 mM EDTA (Cathepsin S). Stock substrate solutions are prepared at 20 mM in DMSO. The activity assays contained 30 uM substrate (Falcipain-2, Falcipain-3, Vivapain-2), 20 uM substrate (Cathepsin K), 25 uM substrate (Cathepsin B), 5 uM substrate (Cathepsin L), and 30 uM substrate (Cathepsin S). All assays contained 1% DMSO. […] All assays are conducted at ambient temperature as end point assays being quenched after 60 minutes with the exception of Cathepsin S at 90 minutes, with 16.6 uM E-64 in 1% DMSO. Product formation (AFC or AMC) is determined from fluorescence (excitation at 405 nm; emission at 530 nm, AFC, or excitation at 360 nm; emission at 460 nm, AMC) monitored with a LJL Aquest (Molecular Devices) fluorescent plate reader. In the case of kinetic reads (used in mechanism of action studies), the reaction is not quenched but is read in the plate reader every 3 minutes for approximately 90 minutes. In addition, the mechanism of action studies for Falcipain-2 utilize Z-LR-AMC as the substrate. Product formation is determined from the fluorescence of AMC, measured with a LJL Acquest (Molecular Devices) fluorescent plate reader (excitation at 360 nm; emission at 460 nm).
Potential inhibitors are evaluated using the quenched read (endpoint) method. Assays are carried out in the presence of variable concentrations of test compound. Reactions are initiated by addition of enzyme and substrate to wells containing inhibitor stamped in 100% DMSO. For endpoint assays, the reaction is quenched with the addition of E64. Dose response data is fit to an IC50 curve with preset fitting tools according to equation 1:
y=a+(b−a)/(1+(10^x/10^c)^d) (1)
where y is the response at a particular inhibitor concentration x, a is the minimum response value, b is the maximum response value, c is the IC50, and d is the slope of the IC50 curve. Assuming the compound is a competitive inhibitor, the apparent KI can be calculated from IC50, as shown in equation 2: […]

Cathepsin K = target: T1, Cathepsin K (Homo sapiens, UniProt P43235); test: Cathepsin K enzymatic assay (assay 1); type: biochemical; conditions: human recombinant enzyme, Z-FR-AFC substrate, pH 5.5
T1 sequence (P43235 115-329): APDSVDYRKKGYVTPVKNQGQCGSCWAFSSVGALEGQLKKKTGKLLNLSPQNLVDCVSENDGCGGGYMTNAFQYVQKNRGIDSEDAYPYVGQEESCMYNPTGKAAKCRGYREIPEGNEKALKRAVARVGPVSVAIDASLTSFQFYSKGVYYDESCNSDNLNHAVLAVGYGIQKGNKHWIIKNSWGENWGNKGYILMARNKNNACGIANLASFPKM
Procedure, shortened: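 Human recombinant cathepsin K was assayed with the fluorogenic substrate Z-FR-AFC at 20 uM in 100 mM sodium acetate, pH 5.5, with 5 mM L-cysteine, 1 mM CHAPS, 5 mM EDTA and 1% DMSO. Enzyme plus substrate was added to wells holding inhibitor in DMSO. After 60 minutes at ambient temperature, 16.6 uM E-64 quenched the reaction. AFC fluorescence (excitation 405 nm, emission 530 nm) was read, and IC50 came from a four-parameter dose-response fit.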

Falcipain-3 = Falcipain-3 (Plasmodium falciparum, UniProt Q8IIL0); test: Falcipain-3 enzymatic assay (assay 1); type: biochemical
Procedure, shortened: (§1)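 Recombinant parasite enzyme with 30 uM H-D-VLR-AFC in 100 mM sodium acetate pH 5.5, 10 mM DTT, 0.5 mM CHAPS, 1% DMSO, ambient temperature. Endpoint after 60 minutes, quenched with 16.6 uM E-64; AFC fluorescence (ex 405/em 530). IC50 from four-parameter fit, apparent KI assuming competitive inhibition.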

Falcipain-2 = Falcipain-2 (Plasmodium falciparum, UniProt Q8I6U4); test: Falcipain-2 enzymatic assay (assay 1); type: biochemical
Procedure, shortened: as §1

[2] = parasitic recombinant enzyme, H-D-VLR-AFC substrate, pH 5.5, endpoint read, read-out: Falcipain-3 IC50
[3] = parasitic recombinant enzyme, H-D-VLR-AFC substrate, pH 5.5, endpoint read, read-out: Falcipain-2 IC50

Chain of Falcipain-3 (Q8IIL0 243-492): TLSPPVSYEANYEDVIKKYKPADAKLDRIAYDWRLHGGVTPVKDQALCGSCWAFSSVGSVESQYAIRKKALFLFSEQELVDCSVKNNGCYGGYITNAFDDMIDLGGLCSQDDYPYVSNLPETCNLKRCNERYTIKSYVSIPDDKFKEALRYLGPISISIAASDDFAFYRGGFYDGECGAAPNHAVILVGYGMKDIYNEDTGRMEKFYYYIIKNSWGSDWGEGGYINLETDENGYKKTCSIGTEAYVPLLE
Chain of Falcipain-2 (Q8I6U4 244-484): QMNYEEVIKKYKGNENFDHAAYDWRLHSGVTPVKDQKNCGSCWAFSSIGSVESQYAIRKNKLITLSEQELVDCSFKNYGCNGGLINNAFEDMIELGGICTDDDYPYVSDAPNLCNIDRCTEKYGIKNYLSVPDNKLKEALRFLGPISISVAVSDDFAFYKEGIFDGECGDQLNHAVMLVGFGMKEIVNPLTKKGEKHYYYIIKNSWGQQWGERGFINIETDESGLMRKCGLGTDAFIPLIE
Chain of Cathepsin S (P25774 115-331): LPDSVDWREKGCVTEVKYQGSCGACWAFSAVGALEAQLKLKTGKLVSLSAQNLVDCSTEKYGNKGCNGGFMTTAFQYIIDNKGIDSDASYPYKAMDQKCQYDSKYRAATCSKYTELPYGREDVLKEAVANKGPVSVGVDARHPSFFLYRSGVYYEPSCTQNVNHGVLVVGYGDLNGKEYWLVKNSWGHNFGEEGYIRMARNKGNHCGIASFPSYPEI

| Molecule | IC50 [1] | IC50 (Cathepsin S) | IC50 ([1]; hydrochloride) | IC50 (Cathepsin K) | IC50 (Falcipain-3) | IC50 ([1]; Plasmodium falciparum) | IC50 (Falcipain-2) | IC50 (Falcipain-3; [2]) | IC50 (Falcipain-2; [3]) |
| --- | --- | --- | --- | --- | --- | --- | --- | --- | --- |
| CN1CCN(Cc2ccc(C(=O)NN(c3nc(C#N)ncc3Br)C3CCCC3)cc2)CC1 [Example 1A, N′-(5-bromo-2-cyano-4-pyrimidinyl)-N′-cyclopentyl-4-[(4-methyl-1-piperazinyl)methyl]benzohydrazide] | 2.5 to 15 nM | < 1000 nM | – | – | – | – | – | – | – |
| CN1CCN(Cc2ccc(C(=O)NN(c3nc(C#N)ncc3Br)C3CCCC3)cc2)CC1 [Example 1B, N′-(5-bromo-2-cyano-4-pyrimidinyl)-N′-cyclopentyl-4-[(4-methyl-1-piperazinyl)methyl]benzohydrazide hydrochloride] | – | < 200 nM | 2.5 to 15 nM | < 1.5 nM | – | – | – | – | – |
| CN1CCN(Cc2ccc(C(=O)NN(c3nc(C#N)ncc3Br)C3CCCCC3)cc2)CC1 [Example 16, N′-(5-bromo-2-cyano-4-pyrimidinyl)-N′-cyclohexyl-4-[(4-methyl-1-piperazinyl)methyl]benzohydrazide trifluoroacetate] | – | < 1000 nM | – | < 1.5 nM | 2.5 to 15 nM | 15 to 150 nM | < 1 nM | – | – |
| CN1CCN(C2CCN(Cc3ccc(C(=O)NN(c4nc(C#N)ncc4Br)C4CCOCC4)cc3)CC2)CC1 [Example 29, N′-(5—Bromo-2-cyano-4-pyrimidinyl)-4-{[4-(4-methyl-1-piperazinyl)-1-piperidinyl]methyl}-N′-(tetrahydro-2H-pyran-4-yl)benzohydrazide trifluoroacetate] | – | – | – | < 17 nM | – | 2.5 to 15 nM | < 1 nM | 2.5 to 15 nM | – |
| CN1CCN(C2CCN(Cc3ccc(C(=O)NN(c4nc(C#N)ncc4Cl)C4CCOCC4)cc3)CC2)CC1 [Example 34, N′-(5-Chloro-2-cyano-4-pyrimidinyl)-4-{[4-(4-methyl-1-piperazinyl)-1-piperidinyl]methyl}-N′-(tetrahydro-2H-pyran-4-yl)benzohydrazide trifluoroacetate] | – | – | – | < 17 nM | 2.5 to 15 nM | 15 to 150 nM | 1 to 2.5 nM | – | – |
| CN1CCN(Cc2ccc(-c3cncc(C(=O)NN(c4nc(C#N)ncc4Br)C4CCCC4)c3)cc2)CC1 [Example 45, N′-(5-bromo-2-cyano-4-pyrimidinyl)-N′-cyclopentyl-5-{4-[(4-methyl-1-piperazinyl)methyl]phenyl}-3-pyridinecarbohydrazide trifluoroacetate] | – | < 200 nM | – | < 1.5 nM | 2.5 to 15 nM | 2.5 to 15 nM | < 1 nM | – | – |
| CC(=O)N1CCC(N(NC(=O)OC(C)(C)C)c2nc(C#N)ncc2Br)CC1 [Example 79, 1,1-dimethylethyl 2-(1-acetyl-4-piperidinyl)-2-(5-bromo-2-cyano-4-pyrimidinyl)hydrazinecarboxylate] | – | < 200 nM | – | – | – | 15 to 150 nM | < 1 nM | 15 to 150 nM | – |
| CCCN1CCN(c2ccc(C(=O)NN(c3nc(C#N)ncc3Br)C3CCCCC3)cc2)CC1 [Example 80, N′-(5-bromo-2-cyano-4-pyrimidinyl)-N′-cyclohexyl-4-(4-propyl-1-piperazinyl)benzohydrazide trifluoroacetate] | – | < 200 nM | – | < 1.5 nM | 15 to 150 nM | 150 to 250 nM | < 1 nM | – | – |
| CC(C)(C)N(CCO)Cc1ccc(C(=O)NN(c2nc(C#N)ncc2Cl)C2CCCC2)cc1 [Example 82, N′-(5-chloro-2-cyano-4-pyrimidinyl)-N′-cyclopentyl-4-{[(1,1-dimethylethyl)(2-hydroxyethyl)amino]methyl}benzohydrazide trifluoroacetate] | – | – | – | – | 2.5 to 15 nM | 2.5 to 15 nM | < 1 nM | – | – |
| CN(Cc1ccc(C(=O)NN(c2nc(C#N)ncc2Cl)C2CCCC2)cc1)CC1OCCO1 [Example 83, N′-(5-chloro-2-cyano-4-pyrimidinyl)-N′-cyclopentyl-4-{[(1,3-dioxolan-2-ylmethyl)(methyl)amino]methyl}benzohydrazide trifluoroacetate] | – | – | – | – | 1 to 2.5 nM | 150 to 250 nM | < 1 nM | – | – |
| CN(CCN(C)C(=O)OC(C)(C)C)Cc1ccc(C(=O)NN(c2nc(C#N)ncc2Cl)C2CCCC2)cc1 [Example 84, 1,1-dimethylethyl{2-[[(4-{[2-(5-chloro-2-cyano-4-pyrimidinyl)-2-cyclopentylhydrazino]carbonyl}phenyl)methyl](methyl)amino]ethyl}methylcarbamate trifluoroacetate] | – | < 1000 nM | – | – | 2.5 to 15 nM | 150 to 250 nM | < 1 nM | – | – |
| CC(C)N(CCN(C(=O)OC(C)(C)C)C(C)C)Cc1ccc(C(=O)NN(c2nc(C#N)ncc2Cl)C2CCCC2)cc1 [Example 85, 1,1-dimethylethyl{2-[[(4-{[2-(5-chloro-2-cyano-4-pyrimidinyl)-2-cyclopentylhydrazino]carbonyl}phenyl)methyl](1-methylethyl)amino]ethyl}(1-methylethyl)carbamate trifluoroacetate] | – | < 200 nM | – | – | 2.5 to 15 nM | 150 to 250 nM | < 1 nM | – | – |
| N′-(1-acetyl-4-piperidinyl)-N′-(5-bromo-2-cyano-4-pyrimidinyl)-4-[(4-methyl-1-piperazinyl)methyl]benzohydrazide trifluoroacetate [Example 37] | 15 to 150 nM | – | – | – | – | – | – | 15 to 150 nM | < 1 nM |
| N′-(5-chloro-2-cyano-4-pyrimidinyl)-N′-cyclopentyl-4-{[methyl(3-methylbutyl)amino]methyl}benzohydrazide trifluoroacetate [Example 63] | 2.5 to 15 nM | – | – | – | – | – | – | 2.5 to 15 nM | < 1 nM |

From patent publication US20100009956A1, “NOVEL SUBSTITUTED PYRIMIDINES AS CYSTEINE PROTEASE INHIBITORS” (Glaxo Group Limited , a corporation, priority 2006, published 2010)
